# ChEMBL document CHEMBL1201862, “PubChem BioAssay data set” (2004)
# Calls of active or inactive are those of the source.
# Tests used:
# [1] = biological target: T1, NADPH oxidase 1 (Homo sapiens, UniProt Q9Y5S8); assay type: functional, cell-based;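 also: Cell-based assay with luminescence read-out, IC50 derived from inhibitor dose-response curves; intracellular ROS from endogenous NOX1 in intact HT29 colon cancer cells; potency of inhibitors that lower the ROS luminescence signal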
# T1 sequence (Q9Y5S8 whole entry): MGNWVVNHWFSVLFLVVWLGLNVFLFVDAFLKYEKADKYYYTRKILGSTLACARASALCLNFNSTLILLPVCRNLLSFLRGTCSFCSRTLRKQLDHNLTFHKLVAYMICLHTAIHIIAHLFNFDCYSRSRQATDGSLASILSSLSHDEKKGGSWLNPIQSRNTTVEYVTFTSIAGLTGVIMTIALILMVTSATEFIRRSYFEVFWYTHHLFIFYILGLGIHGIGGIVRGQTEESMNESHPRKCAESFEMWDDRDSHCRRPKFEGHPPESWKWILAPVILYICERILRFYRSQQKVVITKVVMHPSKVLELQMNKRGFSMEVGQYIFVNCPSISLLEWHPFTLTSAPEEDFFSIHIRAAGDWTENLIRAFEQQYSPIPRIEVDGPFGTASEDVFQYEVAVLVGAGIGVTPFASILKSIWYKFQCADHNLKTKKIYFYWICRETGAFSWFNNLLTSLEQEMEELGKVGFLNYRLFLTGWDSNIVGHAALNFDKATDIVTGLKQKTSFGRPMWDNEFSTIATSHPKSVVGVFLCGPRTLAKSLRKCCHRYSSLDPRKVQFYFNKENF
# [2] = biological target: T2, Heat shock factor protein 1 (Mus musculus, UniProt P38532); test: inhibition of MG132-induced HSE-luciferase signal, confirmation, cell-based, NIH3T3, luminescence, dose retest (AID 2382); assay type: functional;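 also: NIH3T3 fibroblasts with HSF1-driven luciferase reporter stressed by proteasome inhibitor MG132; luminescence from HSF1-driven luciferase expression after 8 hours of MG132 stress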
# T2 sequence (P38532 whole entry): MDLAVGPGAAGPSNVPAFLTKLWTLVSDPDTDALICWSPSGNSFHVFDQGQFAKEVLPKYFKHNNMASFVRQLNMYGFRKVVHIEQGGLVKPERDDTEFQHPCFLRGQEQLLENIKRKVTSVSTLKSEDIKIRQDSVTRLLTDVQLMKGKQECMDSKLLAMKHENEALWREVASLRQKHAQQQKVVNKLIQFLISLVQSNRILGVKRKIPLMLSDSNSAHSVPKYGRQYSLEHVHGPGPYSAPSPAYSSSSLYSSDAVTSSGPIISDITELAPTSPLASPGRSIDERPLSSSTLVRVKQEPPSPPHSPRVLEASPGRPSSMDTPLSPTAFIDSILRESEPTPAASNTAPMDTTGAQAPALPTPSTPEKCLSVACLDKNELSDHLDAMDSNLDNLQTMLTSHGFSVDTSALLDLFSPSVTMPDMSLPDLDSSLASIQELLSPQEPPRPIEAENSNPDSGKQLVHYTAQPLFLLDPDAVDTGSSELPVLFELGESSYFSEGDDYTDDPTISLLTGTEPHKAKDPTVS
# [3] = cytotoxicity in HPDE-C7 cells, cell-based, fluorescence, HTS (AID 430); assay type: functional; conditions: Homo sapiens
# [4] = cytotoxicity in KRAS-transformed pancreatic duct cells, primary screen, cell-based, fluorescence, HTS (AID 431); assay type: functional; conditions: Homo sapiens;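 also: cell line used: HPDE-C7K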
# [5] = tested on: HEK293; test: inhibitors of LMP1-driven NF-kB reporter, dose response, cell-based, HEK293, luciferase, cherry-pick (AID 588343); assay type: functional; conditions: Homo sapiens
# [6] = biological target: T3, Rac GTPase-activating protein 1 (Homo sapiens, UniProt Q9H0H5); test: MgcRacGAP GTPase-activating activity inhibitors, confirmation, biochemical, ADP Hunter fluorescence, primary and confirmatory (AID 624330); assay type: functional
# T3 sequence (Q9H0H5 whole entry): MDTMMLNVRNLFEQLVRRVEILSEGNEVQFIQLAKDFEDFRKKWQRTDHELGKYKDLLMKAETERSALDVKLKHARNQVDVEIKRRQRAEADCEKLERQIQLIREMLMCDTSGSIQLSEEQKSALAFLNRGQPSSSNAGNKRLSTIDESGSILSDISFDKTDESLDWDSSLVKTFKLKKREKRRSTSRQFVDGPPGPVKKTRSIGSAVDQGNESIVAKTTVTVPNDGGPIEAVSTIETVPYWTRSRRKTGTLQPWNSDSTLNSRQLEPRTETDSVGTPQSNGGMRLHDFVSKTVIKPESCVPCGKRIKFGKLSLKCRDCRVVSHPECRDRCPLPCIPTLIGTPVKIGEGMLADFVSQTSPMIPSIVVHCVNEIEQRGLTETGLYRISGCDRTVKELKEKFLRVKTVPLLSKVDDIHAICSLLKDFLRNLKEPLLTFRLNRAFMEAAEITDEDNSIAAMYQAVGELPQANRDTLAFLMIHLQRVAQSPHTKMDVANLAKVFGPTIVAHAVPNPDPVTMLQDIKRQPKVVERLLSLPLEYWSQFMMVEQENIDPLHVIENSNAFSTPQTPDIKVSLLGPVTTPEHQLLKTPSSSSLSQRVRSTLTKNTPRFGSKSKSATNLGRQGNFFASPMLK
# [7] = biological target: Peroxisome proliferator-activated receptor gamma/Nuclear receptor coactivator 2 (Homo sapiens, UniProt P37231); assay type: functional;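 also: agonist potency for raising coactivator recruitment to the receptor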
# [8] = biological target: Peroxisome proliferator-activated receptor gamma/Nuclear receptor coactivator 1 (Homo sapiens, UniProt P37231); assay type: functional;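 also: agonist potency as compounds enhance coactivator SRC-1 recruitment to PPARgamma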
# [9] = biological target: Peroxisome proliferator-activated receptor gamma/Nuclear receptor coactivator 3 (Homo sapiens, UniProt P37231); assay type: functional;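 also: agonist potency for raising coactivator recruitment to the receptor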
# [10] = tested on: Streptococcus sp. 'group A'; test: growth inhibition of control SK(-) GAS strain, dose response, counter-screen for streptokinase expression inhibitor project, luminescence, kanamycin, BacTiterGlo, confirmation (AID 1900); assay type: functional, organism-based
# [11] = biological target: T4, Streptokinase A (Streptococcus pyogenes serotype M1, UniProt P10520); test: S. pyogenes streptokinase expression inhibitors, potency, dose response, plasminogen activation absorbance, OD405 (AID 1914); assay type: functional, Streptococcus pyogenes M1 GAS;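 also: secreted streptokinase activity via plasminogen activation per viability signal from cell pellet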
# T4 sequence (P10520 whole entry): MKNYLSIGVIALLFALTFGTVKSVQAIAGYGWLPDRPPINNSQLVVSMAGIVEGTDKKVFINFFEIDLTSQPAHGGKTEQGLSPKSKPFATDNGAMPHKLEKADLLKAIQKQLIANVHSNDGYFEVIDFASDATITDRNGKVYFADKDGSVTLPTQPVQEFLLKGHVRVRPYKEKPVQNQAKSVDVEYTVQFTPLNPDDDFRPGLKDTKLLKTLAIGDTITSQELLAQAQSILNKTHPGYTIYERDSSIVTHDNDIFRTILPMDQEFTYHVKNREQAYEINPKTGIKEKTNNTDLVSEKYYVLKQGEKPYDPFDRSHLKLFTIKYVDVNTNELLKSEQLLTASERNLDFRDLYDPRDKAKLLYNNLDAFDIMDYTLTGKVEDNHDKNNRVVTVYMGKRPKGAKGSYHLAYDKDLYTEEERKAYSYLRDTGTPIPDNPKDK
# [12] = biological target: T5, Estrogen receptor (Homo sapiens, UniProt P03372);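 also: potency for inhibiting coactivator peptide recruitment to the receptor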
# T5 sequence (P03372 whole entry): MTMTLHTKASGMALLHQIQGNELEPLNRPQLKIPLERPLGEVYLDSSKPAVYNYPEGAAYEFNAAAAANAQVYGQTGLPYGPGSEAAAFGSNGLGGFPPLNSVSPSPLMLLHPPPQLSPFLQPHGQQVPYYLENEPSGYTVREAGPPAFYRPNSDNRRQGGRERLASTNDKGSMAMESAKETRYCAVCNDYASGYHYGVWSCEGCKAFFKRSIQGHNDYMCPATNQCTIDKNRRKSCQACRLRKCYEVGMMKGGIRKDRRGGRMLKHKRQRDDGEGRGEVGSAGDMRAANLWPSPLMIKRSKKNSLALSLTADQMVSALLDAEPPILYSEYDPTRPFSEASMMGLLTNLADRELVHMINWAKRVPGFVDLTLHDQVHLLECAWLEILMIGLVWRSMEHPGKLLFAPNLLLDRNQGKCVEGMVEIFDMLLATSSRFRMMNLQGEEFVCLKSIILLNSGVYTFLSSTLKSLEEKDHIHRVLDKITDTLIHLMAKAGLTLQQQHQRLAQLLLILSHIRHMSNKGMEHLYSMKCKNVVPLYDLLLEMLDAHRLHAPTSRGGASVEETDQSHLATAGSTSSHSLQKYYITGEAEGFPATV
# [13] = biological target: T6, Estrogen receptor beta (Homo sapiens, UniProt Q92731);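 also: recombinant ER-beta bound to coactivator SRC1 peptide in presence of estradiol agonist; inhibitors block coactivator peptide binding and lower the FRET signal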
# [14] = biological target: T6, Estrogen receptor beta; test: ERβ–SRC-3 coactivator interaction inhibitors, confirmation, orthogonal assay, biochemical, ELISA, streptavidin-HRP readout (AID 1060)
# [15] = tested on: Streptococcus; test: Group A Streptococcus viability loss, dose response, counter-screen for streptokinase expression inhibitor project, luminescence, BacTiterGlo (AID 1915); assay type: functional, organism-based;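 also: potency for reduction of bacterial viability or growth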
# [16] = Luminescence Cell-Based Dose Retest to Confirm Inhibitors of Cancer Stem Cells. [Related pubchem assays (depositor defined):AID2717, AID2721]; assay type: functional; conditions: Homo sapiens
# [17] = biological target: Nonstructural protein 1 (Influenza A virus, UniProt Q194T2); assay type: functional, Influenza A virus (A/California/07/2009(H1N1))
# [18] = tested on: INS1; test: beta cell apoptosis inhibitors, cytokine rescue, dose response, luminescence, retest (AID 449756); assay type: functional, cell-based; conditions: Rattus norvegicus;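 also: cell death triggered by IL-1 beta plus TNF-alpha plus IFN-gamma mixture; protective hits raise ATP signal compared with cytokine alone wells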
# [19] = HEp-2 cell cytotoxicity, dose response, cytotoxicity control for RSV inhibitor project, HTS (AID 2410); assay type: functional; conditions: human respiratory syncytial virus
# [20] = biological target: T7, Corticotropin-releasing factor receptor 2/Corticotropin-releasing factor-binding protein (Homo sapiens, UniProt P24387+Q13324); test: Dose Response confirmation of uHTS hits for small molecule antagonists of the CRF-binding protein and CRF-R2 receptor complex.; assay type: functional; conditions: read-out: IC50_Mean
# T7 sequence (Q13324 whole entry): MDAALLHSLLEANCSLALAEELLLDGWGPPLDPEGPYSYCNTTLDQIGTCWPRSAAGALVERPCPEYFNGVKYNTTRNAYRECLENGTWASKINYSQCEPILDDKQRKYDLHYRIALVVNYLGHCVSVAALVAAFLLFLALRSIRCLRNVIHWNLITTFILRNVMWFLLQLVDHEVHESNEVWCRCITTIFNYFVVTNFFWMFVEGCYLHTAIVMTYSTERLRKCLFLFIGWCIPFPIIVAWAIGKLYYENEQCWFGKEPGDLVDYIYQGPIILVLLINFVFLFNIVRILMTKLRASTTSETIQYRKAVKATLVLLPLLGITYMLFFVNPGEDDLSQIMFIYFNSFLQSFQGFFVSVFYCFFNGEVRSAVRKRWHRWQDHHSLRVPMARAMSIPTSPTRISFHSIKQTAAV
# T7 sequence (P24387 whole entry): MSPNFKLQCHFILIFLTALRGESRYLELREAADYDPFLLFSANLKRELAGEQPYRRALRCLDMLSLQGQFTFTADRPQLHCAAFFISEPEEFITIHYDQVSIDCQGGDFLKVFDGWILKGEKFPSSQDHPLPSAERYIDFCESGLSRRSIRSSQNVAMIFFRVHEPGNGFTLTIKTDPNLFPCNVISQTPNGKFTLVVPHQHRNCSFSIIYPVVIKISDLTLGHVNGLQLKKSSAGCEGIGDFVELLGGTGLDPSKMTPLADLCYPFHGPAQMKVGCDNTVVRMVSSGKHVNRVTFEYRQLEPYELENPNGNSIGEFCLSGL
# [21] = biological target: T7, Corticotropin-releasing factor receptor 2/Corticotropin-releasing factor-binding protein; test: activators of CRF receptor 2 with binding protein – uHTS hits, confirmation (AID 602473); assay type: functional; conditions: read-out: EC50_Mean
# [22] = CRF-BP/CRF-R2 complex antagonists, dose response, cell-based, uHTS hits, 384-well (AID 651639); assay type: functional, Homo sapiens; conditions: read-out: IC50_Mean
# [23] = cells
# T6 sequence (Q92731 whole entry): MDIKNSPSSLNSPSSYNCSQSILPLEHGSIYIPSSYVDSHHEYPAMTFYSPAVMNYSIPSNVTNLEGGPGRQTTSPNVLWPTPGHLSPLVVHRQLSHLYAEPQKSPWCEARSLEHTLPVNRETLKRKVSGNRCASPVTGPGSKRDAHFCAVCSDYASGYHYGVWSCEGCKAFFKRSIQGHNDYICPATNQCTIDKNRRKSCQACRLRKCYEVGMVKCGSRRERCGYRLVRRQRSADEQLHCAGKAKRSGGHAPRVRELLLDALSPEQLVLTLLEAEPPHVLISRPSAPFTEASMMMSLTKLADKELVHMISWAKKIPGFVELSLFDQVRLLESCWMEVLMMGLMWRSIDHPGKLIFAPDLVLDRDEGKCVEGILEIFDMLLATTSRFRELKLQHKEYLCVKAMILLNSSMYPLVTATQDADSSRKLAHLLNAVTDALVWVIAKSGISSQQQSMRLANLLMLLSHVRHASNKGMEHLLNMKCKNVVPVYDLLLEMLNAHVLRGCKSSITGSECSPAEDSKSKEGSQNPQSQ
# Sequence of Peroxisome proliferator-activated receptor gamma/Nuclear receptor coactivator 2 (P37231 whole entry): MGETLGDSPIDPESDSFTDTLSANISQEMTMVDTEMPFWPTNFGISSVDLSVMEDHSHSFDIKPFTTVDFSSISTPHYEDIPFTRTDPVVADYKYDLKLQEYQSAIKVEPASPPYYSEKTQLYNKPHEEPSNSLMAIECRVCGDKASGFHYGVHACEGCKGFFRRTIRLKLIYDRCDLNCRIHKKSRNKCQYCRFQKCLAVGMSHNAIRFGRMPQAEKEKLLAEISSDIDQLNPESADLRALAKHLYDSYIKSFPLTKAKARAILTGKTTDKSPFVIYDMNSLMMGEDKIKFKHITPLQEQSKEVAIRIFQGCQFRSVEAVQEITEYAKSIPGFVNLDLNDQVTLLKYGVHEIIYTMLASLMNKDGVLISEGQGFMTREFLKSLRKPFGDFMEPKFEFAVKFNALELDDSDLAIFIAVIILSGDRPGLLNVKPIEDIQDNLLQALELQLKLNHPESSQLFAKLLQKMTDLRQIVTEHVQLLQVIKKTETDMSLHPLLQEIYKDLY
# Sequence of Peroxisome proliferator-activated receptor gamma/Nuclear receptor coactivator 2 (Q15596 whole entry, further chain): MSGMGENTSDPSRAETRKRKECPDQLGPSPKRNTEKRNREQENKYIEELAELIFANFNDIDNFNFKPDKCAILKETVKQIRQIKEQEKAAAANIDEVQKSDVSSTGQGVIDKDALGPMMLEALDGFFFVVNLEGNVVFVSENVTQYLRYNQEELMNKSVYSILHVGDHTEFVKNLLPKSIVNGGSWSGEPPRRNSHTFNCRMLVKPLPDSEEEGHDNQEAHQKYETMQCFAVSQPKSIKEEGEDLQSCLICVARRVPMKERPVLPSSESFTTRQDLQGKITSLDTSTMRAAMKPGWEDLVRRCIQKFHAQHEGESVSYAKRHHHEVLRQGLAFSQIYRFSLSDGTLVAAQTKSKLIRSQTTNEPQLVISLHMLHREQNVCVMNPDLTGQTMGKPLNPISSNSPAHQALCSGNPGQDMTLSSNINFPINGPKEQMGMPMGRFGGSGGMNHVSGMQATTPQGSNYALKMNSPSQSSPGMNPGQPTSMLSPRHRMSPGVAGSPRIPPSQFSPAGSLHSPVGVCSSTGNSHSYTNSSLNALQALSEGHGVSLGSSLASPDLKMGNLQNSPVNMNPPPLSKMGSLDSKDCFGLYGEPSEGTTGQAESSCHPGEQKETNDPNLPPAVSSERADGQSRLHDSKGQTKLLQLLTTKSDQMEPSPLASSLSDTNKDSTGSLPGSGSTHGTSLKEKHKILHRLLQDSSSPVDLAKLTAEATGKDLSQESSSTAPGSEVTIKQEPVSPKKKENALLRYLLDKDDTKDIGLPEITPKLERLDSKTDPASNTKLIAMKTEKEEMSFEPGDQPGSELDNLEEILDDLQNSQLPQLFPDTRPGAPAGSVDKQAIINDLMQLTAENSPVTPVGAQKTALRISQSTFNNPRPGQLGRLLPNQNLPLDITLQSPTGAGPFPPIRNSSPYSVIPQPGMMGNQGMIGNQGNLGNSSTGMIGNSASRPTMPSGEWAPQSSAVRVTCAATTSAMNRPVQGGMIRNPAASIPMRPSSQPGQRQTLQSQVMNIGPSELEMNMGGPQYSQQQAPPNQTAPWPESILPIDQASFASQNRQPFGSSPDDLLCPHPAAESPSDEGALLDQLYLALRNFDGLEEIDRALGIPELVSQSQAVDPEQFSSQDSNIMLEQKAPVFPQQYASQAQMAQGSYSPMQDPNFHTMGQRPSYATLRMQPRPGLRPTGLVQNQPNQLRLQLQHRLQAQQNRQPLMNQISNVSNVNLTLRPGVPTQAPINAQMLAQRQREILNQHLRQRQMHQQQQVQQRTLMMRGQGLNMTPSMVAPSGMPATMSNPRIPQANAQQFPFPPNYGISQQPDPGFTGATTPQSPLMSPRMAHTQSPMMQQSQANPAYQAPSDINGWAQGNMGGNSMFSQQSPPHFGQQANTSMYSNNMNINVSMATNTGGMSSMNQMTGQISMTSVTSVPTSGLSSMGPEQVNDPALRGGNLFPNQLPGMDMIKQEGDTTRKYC
# Sequence of Peroxisome proliferator-activated receptor gamma/Nuclear receptor coactivator 1 (P37231 whole entry): as the sequence (P37231 whole entry) above
# Sequence of Peroxisome proliferator-activated receptor gamma/Nuclear receptor coactivator 1 (Q15788 whole entry, further chain): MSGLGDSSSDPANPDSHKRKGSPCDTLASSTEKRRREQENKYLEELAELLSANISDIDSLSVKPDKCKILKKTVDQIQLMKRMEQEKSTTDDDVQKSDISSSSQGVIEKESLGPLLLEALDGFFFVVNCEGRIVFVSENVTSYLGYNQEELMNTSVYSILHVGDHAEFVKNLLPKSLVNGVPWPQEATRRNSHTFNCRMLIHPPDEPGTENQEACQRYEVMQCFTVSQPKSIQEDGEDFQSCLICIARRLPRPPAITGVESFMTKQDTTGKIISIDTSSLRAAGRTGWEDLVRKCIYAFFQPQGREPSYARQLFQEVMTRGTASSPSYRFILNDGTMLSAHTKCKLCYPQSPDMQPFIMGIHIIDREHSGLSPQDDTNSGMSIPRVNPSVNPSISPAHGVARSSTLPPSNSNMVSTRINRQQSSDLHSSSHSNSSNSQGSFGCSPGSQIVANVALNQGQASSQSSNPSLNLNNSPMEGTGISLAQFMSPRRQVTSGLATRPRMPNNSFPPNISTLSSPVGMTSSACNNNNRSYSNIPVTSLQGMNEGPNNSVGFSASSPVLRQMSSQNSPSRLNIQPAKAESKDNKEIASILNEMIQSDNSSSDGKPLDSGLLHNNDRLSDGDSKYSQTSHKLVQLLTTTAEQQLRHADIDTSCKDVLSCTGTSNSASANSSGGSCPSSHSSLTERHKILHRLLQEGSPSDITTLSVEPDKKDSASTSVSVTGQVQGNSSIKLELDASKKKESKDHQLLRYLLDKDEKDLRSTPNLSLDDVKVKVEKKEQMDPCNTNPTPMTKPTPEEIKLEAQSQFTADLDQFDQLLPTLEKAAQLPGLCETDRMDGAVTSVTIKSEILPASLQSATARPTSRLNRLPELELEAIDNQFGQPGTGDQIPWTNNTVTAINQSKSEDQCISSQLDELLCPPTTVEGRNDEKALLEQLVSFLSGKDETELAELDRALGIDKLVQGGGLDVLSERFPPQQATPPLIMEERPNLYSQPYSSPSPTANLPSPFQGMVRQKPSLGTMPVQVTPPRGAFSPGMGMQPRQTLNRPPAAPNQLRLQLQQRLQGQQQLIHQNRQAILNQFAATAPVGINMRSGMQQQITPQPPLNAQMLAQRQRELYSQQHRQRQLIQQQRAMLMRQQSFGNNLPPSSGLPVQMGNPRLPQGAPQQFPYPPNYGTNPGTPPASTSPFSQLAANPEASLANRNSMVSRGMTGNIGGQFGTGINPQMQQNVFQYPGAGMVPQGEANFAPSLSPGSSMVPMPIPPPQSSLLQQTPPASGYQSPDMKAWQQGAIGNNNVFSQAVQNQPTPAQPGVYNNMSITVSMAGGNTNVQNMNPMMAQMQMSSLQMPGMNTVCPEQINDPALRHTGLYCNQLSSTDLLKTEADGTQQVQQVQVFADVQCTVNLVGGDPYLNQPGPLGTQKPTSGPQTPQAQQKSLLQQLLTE
# Sequence of Nonstructural protein 1 (Q194T2 whole entry): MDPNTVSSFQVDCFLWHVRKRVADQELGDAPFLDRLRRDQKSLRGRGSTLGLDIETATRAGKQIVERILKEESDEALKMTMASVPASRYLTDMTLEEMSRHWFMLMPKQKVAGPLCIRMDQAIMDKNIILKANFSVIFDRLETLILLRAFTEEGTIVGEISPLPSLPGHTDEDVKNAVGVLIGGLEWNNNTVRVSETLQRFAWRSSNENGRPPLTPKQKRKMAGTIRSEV
smiles,measurement,setting,value
CC(=O)Nc1ccccc1OC(=O)c1sc2cc(Cl)ccc2c1Cl,IC50,[1],> 17 µM (not active)
Cc1nn(-c2ccccc2)c(Cl)c1C(=O)N1CCN(c2ncnc3c2cnn3-c2ccccc2)CC1,EC50,[2],5.06 µM (active)
same,EC50,[3],8.56 µM (active)
same,EC50,[4],9.4 µM (active)
same,AC50,[5],5.24 µM (active)
CCn1c(SCC(=O)Nc2ccc(N(C)C)cc2)nnc1-c1cccc(C)c1,EC50,[2],> 195 µM (not active)
same,EC50,[3],> 20 µM (not active)
same,EC50,[4],15.8 µM (active)
same,IC50,[6],65.2 µM (active)
COc1cccc(-c2nc(-c3ccccc3)c(-c3ccccc3)[nH]2)c1,IC50,[1],> 17 µM (not active)
COc1ccc(C(=O)NCC(=O)N=Nc2c(O)n(Cc3ccccc3)c3ccccc23)cc1OC,EC50,[7],> 79.4 µM (not active)
same,EC50,[8],> 79.4 µM (not active)
same,EC50,[9],> 79.4 µM (not active)
CCOCCCNCc1ccc(OC)c(OC)c1,EC50,[7],> 79.4 µM (not active)
same,EC50,[8],> 79.4 µM (not active)
same,EC50,[9],> 79.4 µM (not active)
CCc1ccc2nc(O)c(C3C(C#N)=C(N)Oc4c3ccc3cccnc43)cc2c1 (stereo not given),EC50,[10],16.1 µM (active)
same,EC50,[11],> 150 µM (not active)
same,IC50,[12],11.3 µM (active)
same,IC50,[13],12 µM (active)
same,IC50,[14],2.79 µM (not active)
same,EC50,[15],> 150 µM (not active)
same,AC50,[16],6.07 µM (active)
same,IC50,[17],32.6 µM (active)
same,AC50,[18],1.46 µM (active)
Cc1ccccc1-c1nnc(S)n1/N=C/c1c(C)nn(-c2ccccc2)c1C,CC50,[19],29.1 µM (active)
same,IC50,[20],8.4 µM (active)
same,EC50,[21],> 53 µM (inactive)
same,IC50,[22],12.3 µM (active)
same,IC50,[23],11.3 µM (active)
